# Experiments:
# [1] = Terminal half life in Beagle dog at 10 mg/kg; type: ADME, organism-based, Canis lupus familiaris; set-up: dose 10 mg/kg; conditions: in vivo, read-out: beta t1/2 (converted)
# [2] = Plasma clearance in cynomolgus monkey at 2 mg/kg; type: ADME, organism-based, Macaca fascicularis; set-up: dose 2 mg/kg
# [3] = Volume of distribution at steady state in Beagle dog at 2 mg/kg; type: ADME, organism-based, Canis lupus familiaris; set-up: dose 2 mg/kg; conditions: in vivo, read-out: Vdss
# [4] = Bioavailability in Beagle dog; type: ADME, organism-based, Canis lupus familiaris; conditions: in vivo
# [5] = Terminal half life in rat at 10 mg/kg; type: ADME, organism-based; set-up: dose 10 mg/kg; conditions: in vivo, read-out: beta t1/2 (converted)
# [6] = Bioavailability in squirrel monkey; type: ADME, organism-based; conditions: saimiri, in vivo
# [7] = Cmax in cynomolgus monkey at 4 mg/kg; type: ADME, organism-based, Macaca fascicularis; set-up: dose 4 mg/kg; conditions: in vivo
# [8] = Volume of distribution at steady state in squirrel monkey at 5 mg/kg; type: ADME, organism-based; set-up: dose 5 mg/kg; conditions: saimiri, in vivo, read-out: Vdss
# [9] = Plasma clearance in Beagle dog at 2 mg/kg; type: ADME, organism-based, Canis lupus familiaris; set-up: dose 2 mg/kg
# [10] = Volume of distribution at steady state in cynomolgus monkey at 2 mg/kg; type: ADME, organism-based, Macaca fascicularis; set-up: dose 2 mg/kg; conditions: in vivo, read-out: Vdss
# [11] = Plasma clearance in rat at 10 mg/kg; type: ADME, organism-based; set-up: dose 10 mg/kg
# [12] = Bioavailability in cynomolgus monkey; type: ADME, organism-based, Macaca fascicularis; conditions: in vivo
# [13] = Volume of distribution at steady state in rat at 10 mg/kg; type: ADME, organism-based; set-up: dose 10 mg/kg; conditions: in vivo, read-out: Vdss
# [14] = Cmax in squirrel monkey at 10 mg/kg; type: ADME, organism-based; set-up: dose 10 mg/kg; conditions: saimiri, in vivo
# [15] = Bioavailability in rat; type: ADME, organism-based; conditions: in vivo
# [16] = Cmax in Beagle dog at 10 mg/kg; type: ADME, organism-based, Canis lupus familiaris; set-up: dose 10 mg/kg; conditions: in vivo
# [17] = Plasma clearance in squirrel monkey at 5 mg/kg; type: ADME, organism-based; set-up: dose 5 mg/kg; conditions: saimiri
# [18] = Terminal half life in squirrel monkey at 10 mg/kg; type: ADME, organism-based; set-up: dose 10 mg/kg; conditions: saimiri, in vivo, read-out: beta t1/2 (converted)
# [19] = Cmax in rat at 30 mg/kg; type: ADME, organism-based; set-up: dose 30 mg/kg; conditions: in vivo
# [20] = Terminal half life in cynomolgus monkey at 10 mg/kg; type: ADME, organism-based, Macaca fascicularis; set-up: dose 10 mg/kg; conditions: in vivo, read-out: beta t1/2 (converted)
smiles,measurement,setting,value
CC(C)c1nccc2c1c(Sc1ccc(Cl)c(Cl)c1)c1n2CC[C@@H]1CC(=O)O,half-life,[1],516 min
same,clearance,[2],21 mL/min/kg
same,Vd,[3],1.2 L/kg
same,bioavailability,[4],23%
same,half-life,[5],498 min
same,bioavailability,[6],43%
same,Cmax,[7],60 nM
same,Vd,[8],0.78 L/kg
same,clearance,[9],4 mL/min/kg
same,Vd,[10],1.2 L/kg
same,clearance,[11],1.6 mL/min/kg
same,bioavailability,[12],4%
same,Vd,[13],0.47 L/kg
same,Cmax,[14],8.5 µM
same,bioavailability,[15],53%
same,Cmax,[16],9 µM
same,clearance,[17],7.3 mL/min/kg
same,half-life,[18],84 min
same,Cmax,[19],28 µM
same,half-life,[20],828 min

# — ChEMBL document CHEMBL1154001, “Discovery of potent and selective DP1 receptor antagonists in the azaindole series” (Bioorg Med Chem Lett, 2009)
